Results published in PMC11026381, “Late-stage meta-C–H alkylation of pharmaceuticals to modulate biological properties and expedite molecular optimisation in a single step” (Nature Communications, 2024).
In brackets after ≈: the same amount, converted by molar mass.

Experiments:
[1] = Thermodynamic solubility, shake-flask approach, phosphate buffer pH 7.4; type: physicochemical; conditions: pH 7.4, phosphate buffer 0.1 M, 20 °C, n = 1
Text: (§1) 5. Pharmaceutically relevant properties modulation
(§2) Product analogues 5e, 6a-6k obtained after late-stage meta-C–H alkylation of the pharmaceutically active compound Emapunil (4e) were subjected to a range of fundamental in vitro drug discovery assays. To prevent hydrolysis of ester groups present on these analogues during biological testing (in order to compare the clearance and metabolic stability between these drug derivatives), their corresponding free acids 5e’, 6a’-6k’ were synthesised (see page S54) and subjected to similar assays.
The experimental methods used for these physicochemical & drug metabolism and pharmacokinetics (DMPK) assays are described below 11.
This method measures the thermodynamic solubility of compounds based on a shake-flask approach12.
The nature of the solid state was unknown in these experiments and may be subject to variability. The compounds were dissolved in DMSO (30 μL, 10 mM) in glass vials, and were dried using a Genevac vacuum evaporator (Genevac Ltd, Ipswich, UK). When the samples were dry, 300 μL of phosphate buffer (0.1 M, pH 7.4) was added to the glass vials. The vials were put on an Edmund Bühler shaker (Edmund Bühler GmbH, Hechingen, Germany) at 20 °C for 18 hours. Samples were filtered through a Whatman GF/B 96-well filter and 20 μL of filtrated samples were transferred to separate wells in a plate containing 180 μL MeCN/H2O (1:1). Standards were prepared by diluting the 10 mM compound solutions with MeCN/H2O (1:1) to 200 μM. Three further dilution steps of 10 times were applied to both the samples and standards and they were all analy sed by LC-MS/MS (Waters Xevo-TQS). Solubility was determined using the integrated peak areas of the samples in the linear MS response range. […]

[2] = Octanol/water partitioning (LogD), shake-flask method; type: physicochemical; conditions: n = 1
Text: as §1, §2
(§3) The experimental methods used for these physicochemical & drug metabolism and pharmacokinetics (DMPK) assays are described below 11. […]
Octanol/water partitioning (LogD)
Partitioning of compounds between 1 -octanol and phosphate buffer (0.1 M, pH 7.4) at 20 °C were determined using a modified version of the shake -flask method described by Leo et al13. Compounds were dissolved in a 96 -well plate, in 400 μL octanol, and 400 μL of buffer was added to each well. The plate was vigorously stirred for 5 min and then put on an Edmund Bühler shaker (Edmund Bühler GmbH, Hechingen, Germany) at 20 °C for 18 hours. Aliquots of 5 μL octanol were transferred and diluted with 495 μL MeCN/H2O (1:1) and, to avoid contamination of the buffer, the rest of the octanol was removed before 150 μL of buffer samples were transferred. Octanol and buffer samples were diluted with MeCN/H2O (1:1) in four steps of 10 times to yield octanol samples diluted 10 2 to 106 times and buffer samples diluted 1 to 104 times. LC-MS/MS (Waters Xevo-TQS) was used for analysis, and distribution coefficient at pH 7.4 (LogD7.4) was calculated from the integrated peak areas of the samples in the linear MS response range. LogD7.4 results were reported as median values. […]

[3] = Fraction unbound in human plasma (Prot. Bind.), equilibrium dialysis; type: in vitro ADME; conditions: 5 μM, dialysis at 37 °C for 18 hours
Text: as §1, §2, §3
Fraction unbound in human plasma (Prot. Bind.)
Equilibrium dialysis of compounds was used to assess the fraction unbound in human plasma. Stock solutions of compounds dissolved in DMSO were pooled into cassettes with up to 10 compounds in each cassette with a concentration of 1 mM. The pooled stock solutions were diluted in plasma to a compound concentration of 5 μM. Warfarin, propranolol and metoprolol were used as reference compounds in each run. The equilibrium dialysis device (RED, Thermo Fischer Scientific Inc., Rockford, USA) was used for dialysis against phosphate buffer (pH 7.4) at 37 °C for 18 hours. Calibration curves ranging from 0.001 to 7 μM were made using aliquots of the 7 μM spiked plasma pools that were transferred to a new plate followed by serial dilutions with blank plasma. Calibration curve samples and dialysis samples were precipitated with MeCN and after centrifugation, supernatants were removed and analysed using LC-MS/MS (Waters Xevo-TQS). Fraction unbound in the incubation was calculated as the concentration in the media buffer sample divided by the concentration in the plasma sample. The fraction unbound was reported as the median value.

[4] = Metabolic stability in human liver microsomes (CLint HLM); type: in vitro ADME; conditions: 1 mg/mL microsomal protein, 1 mM NADPH, 37 °C; for microsomal CLint at 1 μM: both sexes, human, liver microsomes, pH 7.4, measured on the labelled compound itself, n = 1, read-out: CLint HLM (intrinsic clearance in human liver microsomes); for CLint HLM (intrinsic clearance in human liver microsomes): measured on the labelled compound itself, 1 μM, n = 1
Method: Metabolic stability in human liver microsomes (CLint HLM)
Human liver microsomes were defrosted on ice and diluted to 1 mg/mL of microsomal protein in phosphate buffer (0.1 M, pH 7.4). Compounds at 1 μM were incubated with the liver microsome suspensions and 1 mM NADPH at 37 °C in a 96-well plate. At 0.5, 5, 10, 15, 20 and 30 min, aliquots of 30 μL were transferred to a 96-well plate containing 120 μL MeCN. This plate was centrifuged for 20 min and supernatant was removed and diluted with H2O (1:1) before analysis by LC-MS/MS (Waters Xevo-TQS). Peak areas were determined from extracted ion chromatograms, and the in vitro intrinsic clearance (in vitro CLint, in μL/min/mg microsomal protein) of parent compound was calculated from the slope in the regression analysis of the natural logarithm of parent concentration vs. time curve.
Human Liver Microsomes (InVitroCYPTM 150-Donor, Mixed Gender) were harvested and supplied by BioIVT (Product No. X008070, Lot No. QQY). […]
(§4) The modulation of pharmaceutically relevant properties on meta-C–H alkylation is shown below in Supplementary Fig. 68, with a selection of physicochemical and DMPK data including solubility , LogD, human plasma protein binding (Prot. Bind.) and intrinsic clearance (CLint) in human liver microsomes (HLM) or rat hepatocytes (Rat Hep.) .

[5] = Metabolic stability in male Han Wistar rat hepatocytes (CLint Rat Hep.); type: in vitro ADME; conditions: measured on the labelled compound itself, 1 μM, 10^6 viable cells/mL, 37 °C, n = 1
Method: Metabolic stability in male Han Wistar rat hepatocytes (CLint Rat Hep.) Hepatocyte metabolic stability was determined in accordance with the method described by Jacobson et al14. Cryopreserved hepatocytes at a concentration of 10 6 viable cells/mL were used. After thawing, hepatocytes were incubated for 10 min to warm to 37 °C, and compounds dissolved in MeCN were […]
incubation system was mixed and 20 μL aliquots were transferred at each time point to wells in a separate plate filled with 80 μL MeCN to stop the reaction. The quenching plate was then vortexed followed by centrifugation, and supernatants were analysed by LC-MS/MS (Waters Xevo-TQS). Peak areas were determined from extracted ion chromatograms, and the in vitro intrinsic clearance (in vitro CLint, in μL/min/10^6 cells) of parent compound was calculated from the slope in the regression analysis of the natural logarithm of parent concentration vs. time curve. Rat Hepatocytes (Cryosuspension, Male Wistar Hannover ) were harvested and s upplied by BioIVT (Product No. M00065, Lot No. DVO).
as §4

[6] = aqueous buffer, thermodynamic from solid
[7] = 1-octanol / phosphate buffer pH 7.4, 20 °C
[8] = 1-octanol/phosphate buffer, pH 7.4, 1-octanol / phosphate buffer pH 7.4, 20 °C

| Compound | solubility at 18 h [1, 6] [µM] | solubility at 18 h [1] [µM] | LogD (octanol) [2, 7] | logD [2, 8] | Prot. Bind. (% free), human plasma protein binding ([3]; n = 1) [% free] | Prot. Bind. (% free), human plasma protein binding ([3]; n = 1, listed as 6e’) [% free] | microsomal CLint at 1 μM [4] [µL/min/mg] | CLint HLM (intrinsic clearance in human liver microsomes) [4] [µL/min/mg] | CLint Rat Hep. (intrinsic clearance in rat hepatocytes) [5] [μL/min/10^6] | CLint Rat Hep. (intrinsic clearance in rat hepatocytes) ([5]; listed as 6e’) [μL/min/10^6] | CLint Rat Hep. (intrinsic clearance in rat hepatocytes) ([5]; listed as 6c’) [μL/min/10^6] | CLint Rat Hep. (intrinsic clearance in rat hepatocytes) ([5]; listed as 6a’) [μL/min/10^6] | CLint Rat Hep. (intrinsic clearance in rat hepatocytes) ([5]; listed as 6h’) [μL/min/10^6] | Prot. Bind. (% free), human plasma protein binding ([3]; n = 1, listed as 6j’) [% free] | CLint Rat Hep. (intrinsic clearance in rat hepatocytes) ([5]; listed as 6j’) [μL/min/10^6] | logD [2, 7] | Prot. Bind. (% free), human plasma protein binding ([3]; n = 1, listed as 6g’) [% free] | CLint Rat Hep. (intrinsic clearance in rat hepatocytes) ([5]; listed as 6g’) [μL/min/10^6] |
| --- | --- | --- | --- | --- | --- | --- | --- | --- | --- | --- | --- | --- | --- | --- | --- | --- | --- | --- |
| CCN(Cc1ccccc1)C(=O)Cn1c(=O)n(C)c2cnc(-c3cccc(C4(C(=O)OC)CCCC4)c3)nc21 [6e] | 36 (≈ 19 µg/mL) | 864 (≈ 456 µg/mL) | 1.4 | 4.3 | 0.4 | 0.7 | > 300 | < 3.0 | > 300 | 51.0 | – | – | – | – | – | – | – | – |
| CCN(Cc1ccccc1)C(=O)Cn1c(=O)n(C)c2cnc(-c3cccc(C4(C(=O)OC)CC4)c3)nc21 [6c] | 51 (≈ 25.5 µg/mL) | 965 (≈ 482 µg/mL) | 0.3 | 3.3 | 6.6 | – | > 300 | < 3.0 | > 300 | – | 36.2 | – | – | – | – | – | – | – |
| CCOC(=O)Cc1cccc(-c2ncc3c(n2)n(CC(=O)N(CC)Cc2ccccc2)c(=O)n3C)c1 [6a] | 41 (≈ 20 µg/mL) | 924 (≈ 451 µg/mL) | -0.5 | 3.3 | 12.0 | – | > 300 | < 3.0 | > 300 | – | – | 10.5 | – | – | – | – | – | – |
| CCOC(=O)C1(c2cccc(-c3ncc4c(n3)n(CC(=O)N(CC)Cc3ccccc3)c(=O)n4C)c2)COC1 [6h] | 58 (≈ 30.7 µg/mL) | > 1000 | -1.0 | 3.1 | 14.0 | – | > 300 | 4.6 | > 300 | – | – | – | 19.3 | – | – | – | – | – |
| CCN(Cc1ccccc1)C(=O)Cn1c(=O)n(C)c2cnc(-c3cccc(C4(C(=O)OCc5ccccc5)CN(C(=O)OC(C)(C)C)C4)c3)nc21 [6j] | < 2.4 | 910 (≈ 629 µg/mL) | > 3.6 | – | < 0.1 | – | > 300 | 7.6 | > 300 | – | – | – | – | 0.8 | 17.2 | – | – | – |
| CCOP(=O)(OCC)C(F)(F)c1cccc(-c2ncc3c(n2)n(CC(=O)N(CC)Cc2ccccc2)c(=O)n3C)c1 [6g] | 46 (≈ 27 µg/mL) | > 1000 | -0.8 | – | 2.0 | – | > 300 | < 3.0 | > 300 | – | – | – | – | – | – | 4.4 | 3.7 | 4.2 |
